In patent publication US20060252798A1, “Metal ion chelators and therapeutic use thereof” (priority 2003, published 2006):
Where “and” joins values, the source holds several entries; their conditions need not be identical. Equal entries are not always repeated. Where two headings read alike, the source gives them in different places. Each block holds one compound with its values, some of them ahead of it.

Experiments:
[1] = system: SK-N-MC neuroepithelioma cells; assay: 3H-leucine incorporation by SK-N-MC cells; assay type: cell-based, human; conditions: 20 h incubation then 2 h label; Mean ± SD, 4 experiments
Protocol: (§1) After a 20 h incubation of the SK-N-MC cells with a selection of analogues, ^3H-thymidine, ^3H-leucine, or ^3H-uridine (1 μCi/ml) was added for 2 h at 37° C. The cells were detached from the 96 well plate using 1 mM EDTA in Ca(II)/Mg(II)-free PBS and collected and washed using a cell harvester (Tomtec Harvester 96, Linbrook, Queensland, Australia). Radioactivity was measured on a P-scintillation counter (LKB Wallace, Turku, Finland).

[2] = system: SK-N-MC neuroepithelioma cells; assay: 3H-uridine incorporation by SK-N-MC cells; assay type: cell-based, human; conditions: 20 h incubation then 2 h label; Mean ± SD, 3 experiments
Protocol: as §1

[3] = system: SK-N-MC neuroepithelioma cells; assay: 3H-thymidine incorporation by SK-N-MC cells; assay type: cell-based, human; conditions: 20 h incubation then 2 h label; Mean ± SD, 4 experiments
Protocol: as §1

[4] = system: SK-N-MC neuroepithelioma cells; assay: MTT cellular proliferation assay, SK-N-MC; assay type: cell-based, human
Protocol: […] […] After this incubation, 0.01 mL of MTT was added to each well and the plates incubated for 2 h at 37° C. The cells were then solubilised by adding 0.1 mL of 10% SDS-50% isobutanol in 0.01 M HCl and the plates then read at 570 nm on a scanning multiwell spectrophotometer (Titertek Multiscan; Beckman Instruments Inc, California). MTT colour formation was directly proportional to the number of viable cells.
The effect of the compounds on the proliferation of SK-N-MC neuroepithelioma cells was examined using the MTT assay (described above).
(§2) Dp2mT served as a negative control.

[5] = system: SK-N-MC neuroepithelioma cells; assay: 59Fe mobilization from prelabelled SK-N-MC neuroepithelioma cells; assay type: cell-based, human
Protocol: The effect of chelators on ^59Fe release from prelabelled cells was studied using standard procedures.^18 Cells were prelabelled with ^59Fe-transferrin (0.75 μM) for 3 h at 37° C. […] The overlying medium was then removed and placed into γ-counting tubes. The cells were removed from the petri dishes in 1 ml of BSS using a plastic spatula and transferred to a separate set of γ-counting tubes.
The ability of the compounds to mobilise ^59Fe from SK-N-MC neuroepithelioma cells was assessed after a 3 h labelling period with ^59Fe-Tf (0.75 μM) at 37° C. […]
DFO and 311 were used as internal standards.

MRC-5 fibroblasts = assay: MTT cellular proliferation assay, MRC-5 fibroblasts; assay type: cell-based, human
Protocol: (§3) The final concentration of the compounds was 0.39-50 μM. […] […] After this incubation, 0.01 mL of MTT was added to each well and the plates incubated for 2 h at 37° C. The cells were then solubilised by adding 0.1 mL of 10% SDS-50% isobutanol in 0.01 M HCl and the plates then read at 570 nm on a scanning multiwell spectrophotometer (Titertek Multiscan; Beckman Instruments Inc, California). MTT colour formation was directly proportional to the number of viable cells.
The MRC-5 cell type is a normal human lung fibroblast cell strain that is mortal and senesces after a number of passages in vitro. The SK-N-MC neuroepithelioma cell type is immortal.
as §2

SK-Mel-28 melanoma cells = assay: MTT cellular proliferation assay, SK-Mel-28; assay type: cell-based, human
Protocol: as §3, §2
(§4) Dp2mT served as a negative control as the methyl group at the 2-position hinders Fe-chelation.

[6] = system: MCF-7 breast cancer cells; assay: MTT cellular proliferation assay, MCF-7; assay type: cell-based, human
Protocol: […] […] […] After this incubation, 0.01 mL of MTT was added to each well and the plates incubated for 2 h at 37° C. The cells were then solubilised by adding 0.1 mL of 10% SDS-50% isobutanol in 0.01 M HCl and the plates then read at 570 nm on a scanning multiwell spectrophotometer (Titertek Multiscan; Beckman Instruments Inc, California). MTT colour formation was directly proportional to the number of viable cells.
as §2, §4

DU 145 prostate cancer = assay: MTT cellular proliferation assay, DU 145; assay type: cell-based; conditions: Homo sapiens, DU-145, 0-50 μM, 72 h, 2 experiments
Protocol: as §3
(§5) At the end of the incubation period, cell density was determined by the MTT assay (described above).

HEP G2 Hepatoma = assay: MTT cellular proliferation assay, HEP G2; assay type: cell-based; conditions: Homo sapiens, HepG2, 0-50 μM, 72 h, 1 experiment
Protocol: as §3, §5

IMR-32 Neuroblastoma = assay: MTT cellular proliferation assay, IMR-32; assay type: cell-based; conditions: Homo sapiens, IMR-32, 0-50 μM, 72 h, 1 experiment
Protocol: as §3, §5

NCI H2452 mesothelioma = assay: MTT cellular proliferation assay, NCI H2452; assay type: cell-based; conditions: Homo sapiens, NCI-H2452, 0-50 μM, 72 h, 3 experiments
Protocol: as §3, §5

H69AR lung cancer = assay: MTT cellular proliferation assay, H69AR; assay type: cell-based; conditions: Homo sapiens, H69AR, 0-50 μM, 72 h, 1 experiment
Protocol: as §3, §5

[7] = system: SK-N-MC neuroepithelioma cells; assay: 59Fe uptake from 59Fe-transferrin by SK-N-MC neuroepithelioma cells; assay type: cell-based, human
Protocol: The cells were then placed on ice and washed four times with ice-cold Hank's balanced salt solution (BSS) to remove non-specifically bound ^59Fe-Tf. Cells were then incubated with the general protease, pronase (1 mg/ml), for 30 min at 4° C. to remove membrane-bound ^59Fe and Tf.
PCTH was used as an internal control.

Ndrg1 = Ndrg1 expression in MCF-7 cells (Western blotting); assay type: cell-based, human; conditions: 25 μM, 24 h, MCF-7 cells (FIG. 16)
Protocol: FIG. 16. […] The expression of Ndrg1 and β-actin protein levels were assessed by Western blotting.
MCF-7 cells were incubated for 24 h with a range of metal ion chelators. […] Dp2mT was used as a negative control, […]

GADD45 and WAF1 mRNA = assay: Northern blot of WAF1 and GADD45 mRNA expression in SK-N-MC cells; assay type: cell-based, human; conditions: DFO 100 μM, other chelators 25 μM, 20 h at 37° C. (FIG. 7)
Protocol: FIG. 7. […] Northern blotting was performed using standard procedures (see Example 6).
Northern blot analysis was performed by isolating total RNA using the Total RNA Isolation Reagent (Advanced Biotechnologies Ltd, Surrey, United Kingdom). The membranes were hybridised with probes specific for human WAF1, GADD45, and β-actin. The WAF1 probe consisted of a 1 kb fragment from pSXV (ATCC; Cat. No. 79928). The GADD45 probe consisted of a 760 bp fragment from human GADD45 cDNA cloned into pHu145B2 (kindly supplied by Dr. Albert Fornace, National Cancer Institute, NIH, Maryland). The β-actin probe consisted of a 1.4 kb fragment from human β-actin cDNA cloned into pBluescript SK− (ATCC; Cat. No. 37997).

[8] = Table 2, MTT assay, 90 h incubation, Mean ± SD, 4 experiments, read-out: IC50 Values of Chelators
[9] = Table 3, normal cells, 72 h, MTT, read-out: IC50 MRC-5 fibroblasts
[10] = Table 3, 0-25 μM, 72 h, MTT, mean ± SD, read-out: IC50 SK-N-MC neuroepithelioma
[11] = Table 3, 72 h, MTT, mean ± SD, read-out: IC50 MCF-7 breast cancer
[12] = Homo sapiens, MCF7, values given in Example 8 text, read-out: IC50, anti-proliferative activity in MCF-7 cells
[13] = Homo sapiens, MRC5, Example 4c, FIG. 6, read-out: IC50 values in fibroblasts
[14] = Homo sapiens, SK-N-MC, 90 h, Table 2, MTT assay, 90 h incubation, Mean ± SD, 4 experiments, read-out: IC50 Values of Chelators

IC50 [4, 8]: 48 ± 4 µM
Compound: 2-pyridylketone 2-thiophenecarboxaldehyde hydrazone [PCTH]
3H-Leucine Incorporation [1]: 21 ± 6 % Control
3H-Uridine Incorporation [2]: 43 ± 2 % Control
3H-Thymidine Incorporation [3]: 64 ± 14 % Control
cellular 59Fe released ([5]; chelator 1 μM, 3 h reincubation at 37° C. (FIG. 5A)): 10%

Compound: 2-quinolinecarboxaldehyde 2-thiophenecarboxaldehyde hydrazone [QCTH]
3H-Thymidine Incorporation [3]: 83 ± 6 % Control
IC50 [4, 8]: > 50 µM

IC50 (SK-Mel-28 melanoma cells; Table 3, 72 h, mean ± SD): 1.4 ± 0.4 µM
IC50 [4, 10]: 0.8 ± 0.2 µM
IC50 [6, 11]: 0.9 ± 0.4 µM
Compound: O=C(NN=Cc1c(O)ccc2ccccc12)c1cccnc1 [311m, 2-hydroxy-1-naphthylaldehyde nicotinoyl hydrazone]
IC50 (MRC-5 fibroblasts; [9]): > 25 µM

IC50 (DU 145 prostate cancer): 0.09 µM
IC50 (HEP G2 Hepatoma): 2.61 µM
IC50 (IMR-32 Neuroblastoma): 0.01 µM
IC50 (SK-Mel-28 melanoma cells; Homo sapiens, SK-MEL-28, 72 h, Table 3, mean ± SD): 0.35 ± 0.09 µM
IC50 ([4]; Homo sapiens, SK-N-MC, 72 h, Table 3, 0-25 μM, 72 h, MTT, mean ± SD, read-out: IC50 SK-N-MC neuroepithelioma): 0.02 µM
IC50 (H69AR lung cancer): 0.39 µM
IC50 ([6]; Homo sapiens, MCF7, 72 h, Table 3, 72 h, MTT, mean ± SD, read-out: IC50 MCF-7 breast cancer): 0.6 ± 0.2 µM
Compound: COc1cccc2c1C(=O)c1c(O)c3c(c(O)c1C2=O)C[C@@](O)(C(=O)CO)C[C@@H]3O[C@H]1C[C@H](N)[C@H](O)[C@H](C)O1 [Dox, doxorubicin]
IC50 (NCI H2452 mesothelioma): 0.17 µM

IC50 (SK-Mel-28 melanoma cells; Table 3, 72 h, mean ± SD): > 25 µM
IC50 [4, 10]: > 25 µM
IC50 [6, 11]: > 25 µM
Compound: CN(N=C(c1ccccn1)c1ccccn1)C(N)=S [Dp2mT, di-2-pyridylketone 2-methyl-3-thiosemicarbazone]
prevention of 59Fe uptake from 59Fe-Tf ([7]; 25 μM, 3 h at 37° C. (FIG. 11B)): little effect
IC50 (MRC-5 fibroblasts; [9]): > 25 µM
up-regulation of Ndrg1 (Ndrg1): no effect

IC50 [6, 12]: > 250 µM
Compound: O=C(O)CN(CCN(CC(=O)O)CC(=O)O)CC(=O)O [EDTA, ethylenediamine tetraacetic acid]
up-regulation of Ndrg1 (Ndrg1): no effect

IC50 [6, 12]: 180 µM
Compound: Cc1c(O)c(=O)ccn1C [L1, deferiprone]
up-regulation of Ndrg1 (Ndrg1): no effect

IC50 [4, 8]: 40 ± 12 µM
Compound: O=C(NN=C(c1ccccn1)c1ccccn1)c1cccc(Br)c1 [PCBBH, 2-pyridylketone 3-bromobenzoyl hydrazone]
GADD45 and WAF1 mRNA expression (GADD45 and WAF1 mRNA): up-regulation

IC50 [4, 8]: 46 ± 7 µM
Compound: O=C(NN=C(c1ccccn1)c1ccccn1)c1ccccc1 [PCBH, 2-pyridylketone benzoyl hydrazone]
3H-Leucine Incorporation [1]: 30 ± 13 % Control
3H-Uridine Incorporation [2]: 31 ± 9 % Control
3H-Thymidine Incorporation [3]: 72 ± 16 % Control
GADD45 and WAF1 mRNA expression (GADD45 and WAF1 mRNA): little effect

IC50 [4, 8]: 1 ± 1 µM
Compound: O=C(NN=C(c1ccccn1)c1ccccn1)c1cccc(Br)c1 [PKBBH, di-2-pyridylketone 3-bromobenzoyl hydrazone]
3H-Leucine Incorporation [1]: 8 ± 1 % Control
IC50 (MRC-5 fibroblasts; [13]): 8 µM
3H-Uridine Incorporation [2]: 3 ± 1 % Control
3H-Thymidine Incorporation [3]: 0.02 % Control and 0.02 ± 0.01 % Control
GADD45 and WAF1 mRNA expression (GADD45 and WAF1 mRNA): pronounced effect

IC50 [4, 8]: 3 ± 1 µM
Compound: O=C(NN=C(c1ccccn1)c1ccccn1)c1ccccc1 [PKBH, di-2-pyridylketone benzoyl hydrazone]
3H-Leucine Incorporation [1]: 21 ± 2 % Control
prevention of 59Fe uptake as a function of concentration ([7]; 0.5-50 μM, 3 h, PCTH internal control (FIG. 5B)): higher efficacy than the control PCTH
IC50 (MRC-5 fibroblasts; [13]): 11 µM
3H-Uridine Incorporation [2]: 5 ± 1 % Control
3H-Thymidine Incorporation [3]: 0.03 ± 0.01 % Control
GADD45 and WAF1 mRNA expression (GADD45 and WAF1 mRNA): pronounced effect
59Fe mobilisation as a function of concentration ([5]; 0.5-50 μM, 3 h, PCTH internal control (FIG. 5A)): more effective than PCTH

IC50 [4, 14]: > 50 µM
Compound: Nc1ccc(C(=O)NN=Cc2ccc3ccccc3n2)cc1 [QCAH, 2-quinolinecarboxaldehyde 4-aminobenzoyl hydrazone]
3H-Thymidine Incorporation [3]: 43 ± 2 % Control

IC50 [4, 14]: 49 ± 3 µM
Compound: O=C(NN=Cc1ccc2ccccc2n1)c1cccc(Br)c1 [QCBBH, 2-quinolinecarboxaldehyde 3-bromobenzoyl hydrazone]
3H-Thymidine Incorporation [3]: 81 ± 10 % Control

IC50 [4, 14]: 50 ± 1 µM
Compound: O=C(NN=Cc1ccc2ccccc2n1)c1ccccc1 [QCBH, 2-quinolinecarboxaldehyde benzoyl hydrazone]
3H-Thymidine Incorporation [3]: 64 ± 5 % Control

IC50 [4, 14]: > 50 µM
Compound: O=C(NN=Cc1ccc2ccccc2n1)c1ccc(O)cc1 [QCHH, 2-quinolinecarboxaldehyde 4-hydroxybenzoyl hydrazone]
3H-Thymidine Incorporation [3]: 41 ± 2 % Control

IC50 [4, 14]: 49 ± 3 µM
Compound: O=C(NN=Cc1ccc2ccccc2n1)c1ccncc1 [QCIH, 2-quinolinecarboxaldehyde isonicotinoyl hydrazone]
3H-Thymidine Incorporation [3]: 77 ± 9.5 % Control
59Fe mobilisation from prelabelled cells ([5]; DFO 100 μM, other chelators 50 μM, 3 h (FIG. 3)): comparable cellular ^59Fe mobilisation to PCIH

Compound: c1ccc(-c2ccccn2)nc1 [dipyridyl]
up-regulation of Ndrg1 (Ndrg1): no effect
IC50 ([6]; Homo sapiens, MCF7, read-out: IC50, anti-proliferative activity in MCF-7 cells): > 250 µM

Compound: CC(C)(S)[C@@H](N)C(=O)O [penicillamine]
up-regulation of Ndrg1 (Ndrg1): no effect
